Read-outs that look alike come from different tables or passages of the source. Where a SMILES comes first, the peptide text is derived from it. Bridges are numbered along the chain shown (N, C = ends). [ ]: non-standard residue; d: D form. The star is where a group is joined. Tyr(3-Cl) = N[C@@H](Cc1ccc(O)c(Cl)c1)C(=O)O; Nicotinoyl(6-F) = O=C(c1ccc(F)nc1)*; Hyp = O=C(O)[C@@H]1C[C@@H](O)CN1
How the values were obtained:
[1] = target: T1, soluble fibrin fragment DD(E) (Homo sapiens, UniProt P02671+P02675+P02679, DEL433-453); experiment: Fluorescence polarization DD(E) binding/displacement assay; conditions: for Ki: displacement of TRITC-labelled peptide from DD(E), TBS·Ca with 2% DMSO, estimated uncertainty ±10%; for Kd: sub-micromolar affinity, read-out: affinity (Kd) to fibrin as assessed by DD(E) assay
T1 construct: partial plasmin digestion of purified fibrin gel followed by size-exclusion chromatographic purification; made in house
Procedure: DD(E) was prepared using a published procedure which involved partial plasmin digestion of purified fibrin gel followed by size-exclusion chromatographic purification, and purity was assessed by SDS-PAGE. Peptides modified at the N-terminus with tetramethyl-rhodamine (TRITC) dye bind to DD(E). Direct fluorescent peptide binding to DD(E) was measured by a fluorescence polarization (FP) assay. The anisotropy (robs) of the fluorescently labeled peptides binding to DD(E) (0-20 μM) was measured in Tris buffered saline (50 mM Tris, 100 mM NaCl and 2 mM CaCl2) at fixed compound concentrations, and the data were fit to a single site model (Eq. 1) to obtain the dissociation constant (Kd) for the DD(E)·(fluorescent peptide) complex.
Displacement of the fluorescent peptide by non-fluorescent compound was measured to determine inhibition constants (Ki). In the presence of an inhibitor, an apparent dissociation constant for the fluorescent compound (Kd app) is determined using Eq. 2. The inhibition constant Ki is related to Kd app by Eq. 2, wherein Kd is the true dissociation constant of the fluorescent compound measured in the absence of inhibitor.
Non-labeled peptide binding to DD(E) was measured by a compound displacement assay, where a DD(E)/Fl·pep complex formed at fixed concentrations of DD(E) and Fl·pep was titrated with increasing concentrations of unlabeled compound. The compound was assayed by mixing DD(E) (4.0 μM, 10 μL) and TRITC (0.1 μM, 10 μL) with increasing concentrations of competing peptide (0.4-100 μM, 20 μL) in TBS·Ca with 2% DMSO in a final volume of 40 μL. Fluorescence polarization of the samples (10 μL, triplicate wells) in ascending concentrations was measured in a 384-well microplate (Corning flat black plate), using a Tecan Infinite 200 Pro fluorescence microplate reader equipped with fluorescence polarization filters, a 535 nm excitation filter and a 590 nm fluorescence emission filter. Average polarization (mP units) readings for each dilution of the compound of interest was converted to anisotropy (r) using Eq. 3.
The data defined a displacement curve (robs vs. [Peptide]), and the inhibitory binding constant, Ki, was determined by least squares fitting of the data (estimated uncertainty in Ki±10%). See Table 2 for the Ki values for the Compounds from Example 1.

[2] = target: soluble fibrin fragment DD(E); experiment: fluorescence polarization, displacement of the TRITC peptide from DD(E)

T1 sequence (P02671 130-216 limits assumed, stated change not applied): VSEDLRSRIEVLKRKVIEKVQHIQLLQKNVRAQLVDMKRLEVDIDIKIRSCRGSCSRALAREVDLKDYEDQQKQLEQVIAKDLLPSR
T1 sequence (P02675 164-491 limits assumed, stated change not applied): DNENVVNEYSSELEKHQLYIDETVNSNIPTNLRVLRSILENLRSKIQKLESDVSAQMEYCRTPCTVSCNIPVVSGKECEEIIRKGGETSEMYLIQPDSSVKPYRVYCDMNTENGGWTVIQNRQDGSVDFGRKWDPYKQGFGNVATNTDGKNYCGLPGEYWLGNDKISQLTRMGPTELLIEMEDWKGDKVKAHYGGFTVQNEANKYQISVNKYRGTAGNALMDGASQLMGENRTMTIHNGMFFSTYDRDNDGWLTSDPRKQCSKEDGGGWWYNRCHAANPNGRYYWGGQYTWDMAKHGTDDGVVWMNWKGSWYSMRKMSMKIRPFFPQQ
T1 sequence (P02679 114-432 limits assumed, stated change not applied): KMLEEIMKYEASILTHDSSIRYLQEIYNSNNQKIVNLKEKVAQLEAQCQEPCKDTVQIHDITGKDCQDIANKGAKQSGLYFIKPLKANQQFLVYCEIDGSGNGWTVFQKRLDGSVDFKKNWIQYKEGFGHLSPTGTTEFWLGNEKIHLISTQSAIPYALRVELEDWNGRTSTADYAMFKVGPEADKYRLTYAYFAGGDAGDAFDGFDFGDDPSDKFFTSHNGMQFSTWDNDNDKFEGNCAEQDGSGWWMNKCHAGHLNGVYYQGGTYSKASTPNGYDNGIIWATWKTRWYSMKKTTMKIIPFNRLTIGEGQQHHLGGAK
T1 sequence (P02671 36-97 partner limits assumed): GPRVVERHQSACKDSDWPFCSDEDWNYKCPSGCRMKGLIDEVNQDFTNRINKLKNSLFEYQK
T1 sequence (P02675 45-152 partner limits assumed): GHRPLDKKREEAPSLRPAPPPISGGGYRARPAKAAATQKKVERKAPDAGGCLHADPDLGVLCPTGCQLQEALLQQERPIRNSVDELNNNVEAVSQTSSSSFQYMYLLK
T1 sequence (P02679 27-88 partner limits assumed): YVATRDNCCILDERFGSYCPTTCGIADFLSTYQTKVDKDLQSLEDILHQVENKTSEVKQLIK

Molecule | Ki ([1]; read-out: Ki) | also measured
CC[C@H](C)[C@H](NC(=O)[C@H](Cc1c[nH]cn1)NC(=O)[C@@H]1CSSC[C@H](NC(=O)[C@@H](CCC(=O)O)NC(=O)[C@H](Cc2ccc(O)cc2)NC(=O)c2ccc(F)nc2)C(=O)N2C[C@H](O)C[C@H]2C(=O)N[C@@H](Cc2ccc(O)c(Cl)c2)C(=O)NCC(=O)N[C@@H](CC(C)C)C(=O)N1)C(=O)N[C@H](CC(C)C)C(N)=O [Compound 8, -Y-e-C-Hyp-Y(3-Cl)-G-L-C-H-I-1-] ({Nicotinoyl(6-F)}-Y[dE]C[Hyp][Tyr(3-Cl)]GLCHI[dL]-NH2; disulfide 3-8) | 640 nM | –
CC[C@H](C)[C@H](NC(=O)[C@H](Cc1ccc(O)cc1)NC(=O)[C@@H]1CSSC[C@H](NC(=O)[C@@H](CCC(=O)O)NC(=O)[C@@H](Cc2ccc(O)cc2)NC(=O)c2ccc(F)nc2)C(=O)N2C[C@H](O)C[C@H]2C(=O)N[C@@H](Cc2ccc(O)c(Cl)c2)C(=O)NCC(=O)N[C@@H](CC(C)C)C(=O)N1)C(=O)N[C@H](CCC(N)=O)C(N)=O [Compound 11, -y-e-C-Hyp-Y(3-Cl)-G-L-C-Y-I-q-] ({Nicotinoyl(6-F)}-[dY][dE]C[Hyp][Tyr(3-Cl)]GLCYI[dQ]-NH2; disulfide 3-8) | 1010 nM | –
CC[C@H](C)[C@H](NC(=O)[C@H](Cc1c[nH]cn1)NC(=O)[C@@H]1CSSC[C@H](NC(=O)[C@@H](CCC(=O)O)NC(=O)[C@H](Cc2ccc(O)cc2)NC(=O)c2ccc(F)nc2)C(=O)N2C[C@H](O)C[C@H]2C(=O)N[C@@H](Cc2ccc(O)c(Cl)c2)C(=O)NCC(=O)N[C@@H](CC(C)C)C(=O)N1)C(=O)N[C@@H](CCC(N)=O)C(N)=O [Compound 4, -Y-e-C-Hyp-Y(3-Cl)-G-L-C-H-I-Q-] ({Nicotinoyl(6-F)}-Y[dE]C[Hyp][Tyr(3-Cl)]GLCHIQ-NH2; disulfide 3-8) | 180 nM | Kd [1]: < 600 nM
-Y-h-C-Hyp-Y(3-Cl)-G-L-C-Y-I-Q- ({Nicotinoyl(6-F)}-Y[dH]C[Hyp][Tyr(3-Cl)]GLCYIQ-NH2; disulfide 3-8; not fully specified; printed as -Y-h-C-Hyp-Y(3-Cl)-G-L-C-Y-I-Q-) [Compound 15, N-terminal modified peptide (F is fluorine), C-terminal amide] | – | Ki [1]: No
CC[C@H](C)[C@H](NC(=O)[C@H](Cc1c[nH]cn1)NC(=O)[C@@H]1CSSC[C@H](NC(=O)[C@@H](CCC(=O)O)NC(=O)[C@@H](Cc2ccc(O)cc2)NC(=O)c2ccc(F)nc2)C(=O)N2C[C@H](O)C[C@H]2C(=O)N[C@@H](Cc2ccc(O)c(Cl)c2)C(=O)NCC(=O)N[C@@H](CC(C)C)C(=O)N1)C(=O)N[C@@H](CCC(N)=O)C(N)=O [Compound 2, -y-e-C-Hyp-Y(3-Cl)-G-L-C-H-I-Q-] ({Nicotinoyl(6-F)}-[dY][dE]C[Hyp][Tyr(3-Cl)]GLCHIQ-NH2; disulfide 3-8) | 70 nM | Kd [1]: < 600 nM
CC[C@H](C)[C@H](NC(=O)[C@H](Cc1ccc(O)cc1)NC(=O)[C@@H]1CSSC[C@H](NC(=O)[C@@H](CCC(=O)O)NC(=O)[C@H](Cc2ccc(O)cc2)NC(=O)c2ccc(F)nc2)C(=O)N2C[C@H](O)C[C@H]2C(=O)N[C@@H](Cc2ccc(O)c(Cl)c2)C(=O)NCC(=O)N[C@@H](CC(C)C)C(=O)N1)C(=O)N[C@H](CCC(N)=O)C(N)=O [Compound 13, -Y-e-C-Hyp-Y(3-Cl)-G-L-C-Y-I-q-] ({Nicotinoyl(6-F)}-Y[dE]C[Hyp][Tyr(3-Cl)]GLCYI[dQ]-NH2; disulfide 3-8) | 1250 nM | –
{Nicotinoyl(6-F)}-[dY][dE]C[Hyp][Tyr(3-Cl)]GLCYI[dQ]-NH2 (disulfide 3-8; SMILES CC[C@H](C)[C@H](NC(=O)[C@H](Cc1ccc(O)cc1)NC(=O)[C@@H]1CSSC[C@H](NC(=O)[C@@H](CCC(=O)O)NC(=O)[C@@H](Cc2ccc(O)cc2)NC(=O)c2ccc(F)nc2)C(=O)N2C[C@H](O)C[C@H]2C(=O)N[C@@H](Cc2ccc(O)c(Cl)c2)C(=O)NCC(=O)N[C@@H](CC(C)C)C(=O)N1)C(=O)N[C@H](CCC(N)=O)C(N)=O) [Compound 11] | – | Ki [2]: 1010 nM
{Nicotinoyl(6-F)}-Y[dE]C[Hyp][Tyr(3-Cl)]GLCYI[dL]-NH2 (disulfide 3-8; SMILES CC[C@H](C)[C@H](NC(=O)[C@H](Cc1ccc(O)cc1)NC(=O)[C@@H]1CSSC[C@H](NC(=O)[C@@H](CCC(=O)O)NC(=O)[C@H](Cc2ccc(O)cc2)NC(=O)c2ccc(F)nc2)C(=O)N2C[C@H](O)C[C@H]2C(=O)N[C@@H](Cc2ccc(O)c(Cl)c2)C(=O)NCC(=O)N[C@@H](CC(C)C)C(=O)N1)C(=O)N[C@H](CC(C)C)C(N)=O) [Compound 10] | – | Ki [2]: 950 nM

Now from value to molecule, other results behind:

Ki ([1]; read-out: Ki) | Molecule | also measured
140 nM | CC[C@H](C)[C@H](NC(=O)[C@H](Cc1c[nH]cn1)NC(=O)[C@@H]1CSSC[C@H](NC(=O)[C@@H](CCC(=O)O)NC(=O)[C@@H](Cc2ccc(O)cc2)NC(=O)c2ccc(F)nc2)C(=O)N2C[C@H](O)C[C@H]2C(=O)N[C@@H](Cc2ccc(O)c(Cl)c2)C(=O)NCC(=O)N[C@@H](CC(C)C)C(=O)N1)C(=O)N[C@H](CC(C)C)C(N)=O [Compound 3, -y-e-C-Hyp-Y(3-Cl)-G-L-C-H-I-1-] ({Nicotinoyl(6-F)}-[dY][dE]C[Hyp][Tyr(3-Cl)]GLCHI[dL]-NH2; disulfide 3-8) | Kd [1]: < 600 nM
230 nM | CC[C@H](C)[C@H](NC(=O)[C@H](Cc1c[nH]cn1)NC(=O)[C@@H]1CSSC[C@H](NC(=O)[C@@H](CCC(=O)O)NC(=O)[C@H](Cc2ccc(O)cc2)NC(=O)c2ccc(F)nc2)C(=O)N2C[C@H](O)C[C@H]2C(=O)N[C@@H](Cc2ccc(O)c(Cl)c2)C(=O)NCC(=O)N[C@@H](CC(C)C)C(=O)N1)C(=O)N[C@H](CCC(N)=O)C(N)=O [Compound 5, -Y-e-C-Hyp-Y(3-Cl)-G-L-C-H-I-q-] ({Nicotinoyl(6-F)}-Y[dE]C[Hyp][Tyr(3-Cl)]GLCHI[dQ]-NH2; disulfide 3-8) | Kd [1]: < 600 nM
1200 nM | CC[C@H](C)[C@H](NC(=O)[C@H](Cc1ccc(O)cc1)NC(=O)[C@@H]1CSSC[C@H](NC(=O)[C@@H](CCC(=O)O)NC(=O)[C@H](Cc2ccc(O)cc2)NC(=O)c2ccc(F)nc2)C(=O)N2C[C@H](O)C[C@H]2C(=O)N[C@@H](Cc2ccc(O)c(Cl)c2)C(=O)N[C@@H](CC(=O)O)C(=O)N[C@@H](CC(C)C)C(=O)N1)C(=O)N[C@@H](CCC(N)=O)C(N)=O [Compound 12, -Y-e-C-Hyp-Y(3-Cl)-D-L-C-Y-I-Q-] ({Nicotinoyl(6-F)}-Y[dE]C[Hyp][Tyr(3-Cl)]DLCYIQ-NH2; disulfide 3-8) | –
730 nM | CC[C@H](C)[C@H](NC(=O)[C@H](Cc1ccc(O)cc1)NC(=O)[C@@H]1CSSC[C@H](NC(=O)[C@@H](CCC(=O)O)NC(=O)[C@@H](Cc2ccc(O)cc2)NC(=O)c2ccc(F)nc2)C(=O)N2C[C@H](O)C[C@H]2C(=O)N[C@@H](Cc2ccc(O)c(Cl)c2)C(=O)NCC(=O)N[C@@H](CC(C)C)C(=O)N1)C(=O)N[C@H](CC(C)C)C(N)=O [Compound 9, -y-e-C-Hyp-Y(3-Cl)-G-L-C-Y-I-1-] ({Nicotinoyl(6-F)}-[dY][dE]C[Hyp][Tyr(3-Cl)]GLCYI[dL]-NH2; disulfide 3-8) | –
950 nM | CC[C@H](C)[C@H](NC(=O)[C@H](Cc1ccc(O)cc1)NC(=O)[C@@H]1CSSC[C@H](NC(=O)[C@@H](CCC(=O)O)NC(=O)[C@H](Cc2ccc(O)cc2)NC(=O)c2ccc(F)nc2)C(=O)N2C[C@H](O)C[C@H]2C(=O)N[C@@H](Cc2ccc(O)c(Cl)c2)C(=O)NCC(=O)N[C@@H](CC(C)C)C(=O)N1)C(=O)N[C@H](CC(C)C)C(N)=O [Compound 10, -Y-e-C-Hyp-Y(3-Cl)-G-L-C-Y-I-1-] ({Nicotinoyl(6-F)}-Y[dE]C[Hyp][Tyr(3-Cl)]GLCYI[dL]-NH2; disulfide 3-8) | –
2760 nM | CC[C@H](C)[C@H](NC(=O)[C@H](Cc1ccc(O)cc1)NC(=O)[C@@H]1CSSC[C@H](NC(=O)[C@@H](CCC(=O)O)NC(=O)[C@H](Cc2ccc(O)cc2)NC(=O)c2ccc(F)nc2)C(=O)N2C[C@H](O)C[C@H]2C(=O)N[C@@H](Cc2ccc(O)c(Cl)c2)C(=O)N[C@H](CC(=O)O)C(=O)N[C@@H](CC(C)C)C(=O)N1)C(=O)N[C@@H](CCC(N)=O)C(N)=O [Compound 14, -Y-e-C-Hyp-Y(3-Cl)-d-L-C-Y-I-Q-] ({Nicotinoyl(6-F)}-Y[dE]C[Hyp][Tyr(3-Cl)][dD]LCYIQ-NH2; disulfide 3-8) | –

Reference: patent US20240115744A1, “FIBRIN-BINDING COMPOUNDS FOR IMAGING AND TREATMENT” (Collagen Medical, LLC, priority 2019, published 2024)
